Assay results: publication PMC6912857 (Journal of Medicinal Chemistry, 2019)
“Also recorded” adds a separate entry of the source.

Columns and labels:
hH3R = hH3R (Homo sapiens, UniProt Q9Y5N1); assay: CRE-luciferase reporter gene assay, hH3R expressed on HEK293T cells; assay type: cell-based; settings: intrinsic activity compared to histamine
[1] = cited from earlier work
mH4R = biological target: T1, mH4R (Mus musculus, UniProt Q91ZY2); assay: CRE-luciferase reporter gene assay, mH4R expressed on HEK293T cells; assay type: cell-based
T1 sequence (Q91ZY2 1-391): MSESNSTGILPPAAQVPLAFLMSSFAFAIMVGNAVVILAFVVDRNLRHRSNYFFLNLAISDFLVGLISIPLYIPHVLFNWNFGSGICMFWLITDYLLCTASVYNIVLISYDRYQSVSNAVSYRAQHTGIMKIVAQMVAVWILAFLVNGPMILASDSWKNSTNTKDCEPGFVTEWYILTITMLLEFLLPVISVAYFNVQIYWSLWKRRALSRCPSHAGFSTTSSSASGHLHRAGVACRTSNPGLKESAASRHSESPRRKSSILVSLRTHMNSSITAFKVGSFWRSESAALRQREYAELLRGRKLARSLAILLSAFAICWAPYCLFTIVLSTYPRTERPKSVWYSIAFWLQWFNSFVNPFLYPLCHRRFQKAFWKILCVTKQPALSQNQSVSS

H1R = H1R (Homo sapiens, UniProt P35367); assay: NFAT-luciferase reporter gene assay, H1R; assay type: cell-based; settings: up to 10 μM
Chain of H1R (P35367 whole entry, species assumed): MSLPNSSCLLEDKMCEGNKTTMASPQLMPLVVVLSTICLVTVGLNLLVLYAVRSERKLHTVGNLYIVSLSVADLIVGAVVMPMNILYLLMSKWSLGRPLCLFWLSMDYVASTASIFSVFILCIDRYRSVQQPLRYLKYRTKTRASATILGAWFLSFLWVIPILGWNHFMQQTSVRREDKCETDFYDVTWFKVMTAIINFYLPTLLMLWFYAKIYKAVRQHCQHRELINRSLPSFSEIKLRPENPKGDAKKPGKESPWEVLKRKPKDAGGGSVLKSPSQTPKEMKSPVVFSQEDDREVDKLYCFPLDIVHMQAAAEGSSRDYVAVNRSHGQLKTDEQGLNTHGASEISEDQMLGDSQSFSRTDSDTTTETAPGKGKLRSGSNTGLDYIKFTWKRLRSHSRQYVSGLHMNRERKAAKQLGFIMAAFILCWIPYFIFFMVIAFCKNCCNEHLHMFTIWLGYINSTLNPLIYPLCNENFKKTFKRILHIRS

H2R = H2R (Homo sapiens, UniProt P25021); assay: CRE-luciferase reporter gene assay, H2R; assay type: cell-based; settings: up to 10 μM
Chain of H2R (P25021 whole entry, species assumed): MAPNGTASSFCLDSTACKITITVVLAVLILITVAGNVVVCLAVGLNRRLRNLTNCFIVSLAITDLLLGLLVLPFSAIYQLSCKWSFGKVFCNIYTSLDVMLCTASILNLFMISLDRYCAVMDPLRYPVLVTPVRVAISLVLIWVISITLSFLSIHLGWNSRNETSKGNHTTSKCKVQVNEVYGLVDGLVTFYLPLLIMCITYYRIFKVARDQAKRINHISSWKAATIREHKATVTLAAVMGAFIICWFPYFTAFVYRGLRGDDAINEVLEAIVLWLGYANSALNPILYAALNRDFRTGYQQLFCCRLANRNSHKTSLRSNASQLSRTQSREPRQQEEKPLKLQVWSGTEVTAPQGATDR

[2] = Nephelometry / aqueous solubility; assay type: physicochemical; settings: up to 100 mM concentration
Male C57Bl6 mice = assay: Social recognition test in mice
[3] = Metabolic stability in mouse liver microsomes
rats = settings: cited from earlier work

Chain of hH3R (Q9Y5N1 whole entry): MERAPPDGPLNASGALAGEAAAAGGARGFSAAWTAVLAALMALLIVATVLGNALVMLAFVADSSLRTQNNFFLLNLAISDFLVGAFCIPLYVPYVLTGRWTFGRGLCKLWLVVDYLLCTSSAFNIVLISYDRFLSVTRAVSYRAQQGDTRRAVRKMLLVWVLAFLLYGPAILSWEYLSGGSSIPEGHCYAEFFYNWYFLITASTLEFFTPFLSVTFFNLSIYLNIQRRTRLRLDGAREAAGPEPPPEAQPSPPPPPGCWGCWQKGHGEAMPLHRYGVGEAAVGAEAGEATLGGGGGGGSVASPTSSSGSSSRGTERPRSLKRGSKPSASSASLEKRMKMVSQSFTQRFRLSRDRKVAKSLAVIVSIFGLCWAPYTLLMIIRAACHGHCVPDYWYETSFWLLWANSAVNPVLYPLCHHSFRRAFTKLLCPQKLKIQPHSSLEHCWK

CCNC1CN(c2cc(CC)nc(N)n2)C1 [12c, 4-Ethyl-6-(3-(ethylamino)azetidin-1-yl)pyrimidin-2-amine]
α (intrinsic activity) (hH3R): ~1.0

c1ncc(CC2CCNCC2)[nH]1 [immepip]
effect on memory in the social recognition test [1]: cause amnesia

CCCNC1CN(c2ccnc(N)n2)C1.O.O=C(O)/C=C/C(=O)O [14d, 4-(3-(Propylamino)azetidin-1-yl)pyrimidin-2-amine Fumarate Hydrate]
selectivity in potency mH3R vs mH4R (mH4R): > 10 fold | activation of H1R (H1R): does not activate | activation of H2R (H2R): does not activate | microprecipitation (nephelometry) [2]: no microprecipitation | CNS / brain penetration (Male C57Bl6 mice; indicated by effects in the in vivo social memory test, 5 mg/kg i.p., 5 mg/kg): clearly penetrating the CNS; also recorded: appreciable brain penetration | discrimination index (DI) (Male C57Bl6 mice; mice, 5 mg/kg i.p.): negative | social recognition memory (discrimination of novel vs familiar mouse) (Male C57Bl6 mice; mice, 5 mg/kg i.p. 30 min before the training session, 5 mg/kg): amnesic effects; also recorded: did not discriminate between the novel and the familiar mouse; also recorded: impairs social recognition | exploration time of the cage during test (Male C57Bl6 mice; mice, 5 mg/kg i.p., during test): 148.3 ± 69.4 s | exploration time of the cage during training (Male C57Bl6 mice; mice, 5 mg/kg i.p., during training): 136.2 ± 44.1 s | sociability (Male C57Bl6 mice; mice, 5 mg/kg i.p., training session): did not affect | slower elimination compared with the reference control verapamil ([3]; mouse liver microsomes): more than 2 times | half-life at 50 μM ([3]; mouse, microsomes, pH 7.4): 2.18 h

N=C(N)SCCc1cnc[nH]1 [Imetit, imetit]
effect on memory in the object recognition and passive avoidance tests (rats): memory impairments

S=C(NC1CCCCC1)N1CCC(c2cnc[nH]2)CC1 [thioperamide]
effect on memory in the social recognition test [1]: improve short-term memory
